# Measurements reported in BigSolDB 2.1.
compound,measurement,setting,value
Cc1nnc(C(C)C)n1[C@@H]1C[C@H]2CC[C@@H](C1)N2CC[C@H](NC(=O)C1CCC(F)(F)CC1)c1ccccc1,solubility (mole fraction),"in DMF, 278.15 K",3.43e-05
same,solubility (mole fraction),"in DMF, 283.15 K",5.31e-05
same,solubility (mole fraction),"in DMF, 288.15 K",8.04e-05
same,solubility (mole fraction),"in DMF, 293.15 K",0.000117
same,solubility (mole fraction),"in DMF, 298.15 K",0.000181
same,solubility (mole fraction),"in DMF, 303.15 K",0.000256
same,solubility (mole fraction),"in DMF, 308.15 K",0.000364
same,solubility (mole fraction),"in DMF, 313.15 K",0.000535
same,solubility (mole fraction),"in DMF, 318.15 K",0.000744
same,solubility (mole fraction),"in DMF, 323.15 K",0.00105
same,solubility (mole fraction),"in DMSO, 293.15 K",5.92e-05
same,solubility (mole fraction),"in DMSO, 298.15 K",8.77e-05
same,solubility (mole fraction),"in DMSO, 303.15 K",0.000133
same,solubility (mole fraction),"in DMSO, 308.15 K",0.000189
same,solubility (mole fraction),"in DMSO, 313.15 K",0.000273
same,solubility (mole fraction),"in DMSO, 318.15 K",0.00038
same,solubility (mole fraction),"in DMSO, 323.15 K",0.000539
same,solubility (mole fraction),"in ethanol, 278.15 K",0.000264
same,solubility (mole fraction),"in ethanol, 283.15 K",0.00038
same,solubility (mole fraction),"in ethanol, 288.15 K",0.0005
same,solubility (mole fraction),"in ethanol, 293.15 K",0.000715
same,solubility (mole fraction),"in ethanol, 298.15 K",0.00099
same,solubility (mole fraction),"in ethanol, 303.15 K",0.00142
same,solubility (mole fraction),"in ethanol, 308.15 K",0.00196
same,solubility (mole fraction),"in ethanol, 313.15 K",0.00273
same,solubility (mole fraction),"in ethanol, 318.15 K",0.0036
same,solubility (mole fraction),"in ethanol, 323.15 K",0.00458
same,solubility (mole fraction),"in n-propanol, 278.15 K",0.00022
same,solubility (mole fraction),"in n-propanol, 283.15 K",0.000327
same,solubility (mole fraction),"in n-propanol, 288.15 K",0.000454
same,solubility (mole fraction),"in n-propanol, 293.15 K",0.000645
same,solubility (mole fraction),"in n-propanol, 298.15 K",0.000911
same,solubility (mole fraction),"in n-propanol, 303.15 K",0.00126
same,solubility (mole fraction),"in n-propanol, 308.15 K",0.00167
same,solubility (mole fraction),"in n-propanol, 313.15 K",0.00222
same,solubility (mole fraction),"in n-propanol, 318.15 K",0.00296
same,solubility (mole fraction),"in n-propanol, 323.15 K",0.00395
same,solubility (mole fraction),"in water, 278.15 K",5.73e-06
same,solubility (mole fraction),"in water, 283.15 K",8.2e-06
same,solubility (mole fraction),"in water, 288.15 K",1.15e-05
same,solubility (mole fraction),"in water, 293.15 K",1.7e-05
same,solubility (mole fraction),"in water, 298.15 K",2.47e-05
same,solubility (mole fraction),"in water, 303.15 K",3.5e-05
same,solubility (mole fraction),"in water, 308.15 K",5e-05
same,solubility (mole fraction),"in water, 313.15 K",7.13e-05
same,solubility (mole fraction),"in water, 318.15 K",9.89e-05
same,solubility (mole fraction),"in water, 323.15 K",0.000137
